This note sets out measurements from the NIST ThermoML archive (doi:10.1021/je060139a).

For data set [1] the following is noted: for surface tension liquid-gas: Wilhelmy plate method; for mass density: 298.15 K, 101.33 kPa, Liquid.
Data set [2] can be described thus: refractive index (Na D-line) (dimensionless). As to conditions: 101.33 kPa, Liquid, Standard Abbe refractometry.
Data set [3] can be described thus: xn = mol fraction of the nth substance listed. To be noted: Wilhelmy plate method, x2 = 0.
Data set [4] can be described thus: refractive index (Na D-line) (dimensionless); xn = mol fraction of the nth substance listed. As to conditions: 100.5 kPa, Liquid, Standard Abbe refractometry, x2 = 0.

“And” between values parts separate entries of the source, which are not always exact repeats. Identical values can stand only once. ± gives the expanded uncertainty stated by the source.

For the compound `COC(=O)c1ccccc1` [methyl benzoate], the surface tension liquid-gas (as a rule, the work needed to enlarge the surface of a liquid by unit area) stood at 38.6 ± 0.43 mN/m in data set [1] (288.15 K), 37.2 ± 0.43 mN/m in data set [1] (298.18 K), 35.8 ± 0.43 mN/m in data set [1] (308.15 K) and 34.8 ± 0.42 mN/m in data set [1] (318.15 K). Also, the mass density – broadly, the mass of a sample divided by its volume – in data set [1] is 1083.92 ± 0.68 kg/m3. Besides, the refractive index (in general, the speed of light in vacuum divided by its phase velocity in the sample) stood at 1.51915 ± 0.00035 in data set [2] (288.15 K), 1.51467 ± 0.00035 in data set [2] (298.18 K), 1.50993 ± 0.00035 in data set [2] (308.15 K) and 1.50514 ± 0.00035 in data set [2] (318.15 K).

`CCOC(=O)CC(C)=O` [ethyl 3-oxobutanoate]: the surface tension liquid-gas is listed as 33.3 ± 0.42 mN/m in data set [1] (288.15 K), 32.3 ± 0.42 mN/m in data set [1] (298.18 K), 31.1 ± 0.42 mN/m in data set [1] (308.15 K) and 30 ± 0.42 mN/m in data set [1] (318.15 K). In data set [1], the mass density turned out to be 1023.45 ± 0.52 kg/m3. Moreover, the refractive index in data set [2] (288.15 K) was 1.4209 ± 0.0004; in data set [2] (298.18 K) it was 1.4166 ± 0.0004; in data set [2] (308.15 K), 1.4125 ± 0.0004; in data set [2] (318.15 K) it was 1.408 ± 0.0004.

On to `CCO` [ethanol] + CCC(=O)OCc1ccccc1, for which the surface tension liquid-gas in data set [3] (288.15 K) is on record as 23 ± 0.4 mN/m; in data set [3] (298.18 K), 22.3 ± 0.4 mN/m; in data set [3] (308.15 K) it was 21.5 ± 0.4 mN/m; in data set [3] (318.15 K) it was 20.6 ± 0.4 mN/m. The refractive index is reported as 1.36333 ± 0.00031 in data set [4] (288.15 K), 1.35941 ± 0.00031 in data set [4] (298.18 K), 1.35531 ± 0.00031 in data set [4] (308.15 K) and 1.35148 ± 0.00031 in data set [4] (318.15 K).

In the case of `CCC(=O)OCc1ccccc1` [benzyl propanoate], the surface tension liquid-gas came to 36 ± 0.41 mN/m in data set [1] (288.15 K), 34.8 ± 0.41 mN/m in data set [1] (298.18 K), 33.6 ± 0.41 mN/m in data set [1] (308.15 K) and 32.4 ± 0.41 mN/m in data set [1] (318.15 K). Moreover, in data set [1], the mass density is listed as 1027.6 ± 0.4 kg/m3. In addition, the refractive index came out at 1.4995 ± 0.00034 in data set [2] (288.15 K), 1.49498 ± 0.00034 in data set [2] (298.18 K), 1.49074 ± 0.00034 in data set [2] (308.15 K) and 1.48611 ± 0.00034 in data set [2] (318.15 K).

With `CCO` [ethanol] + CCOC(=O)CC(C)C, the surface tension liquid-gas in data set [3] (288.15 K) is 23 ± 0.4 mN/m; in data set [3] (298.18 K), 22.3 ± 0.4 mN/m; in data set [3] (308.15 K), 21.5 ± 0.4 mN/m; in data set [3] (318.15 K), 20.6 ± 0.4 mN/m. The refractive index amounted to 1.36333 ± 0.00031 in data set [4] (288.15 K), 1.35941 ± 0.00031 in data set [4] (298.18 K), 1.35531 ± 0.00031 in data set [4] (308.15 K) and 1.35148 ± 0.00031 in data set [4] (318.15 K).

With `CC(=O)OCc1ccccc1` [benzyl ethanoate], the surface tension liquid-gas is on record as 37.7 ± 0.41 mN/m in data set [1] (288.15 K), 36.4 ± 0.41 mN/m in data set [1] (298.18 K), 35.3 ± 0.41 mN/m in data set [1] (308.15 K) and 34.1 ± 0.41 mN/m in data set [1] (318.15 K). In data set [1], the mass density stood at 1050.75 ± 0.3 kg/m3. Moreover, the refractive index was 1.50439 ± 0.00032 in data set [2] (288.15 K), 1.49982 ± 0.00032 in data set [2] (298.18 K), 1.49539 ± 0.00032 in data set [2] (308.15 K) and 1.49064 ± 0.00032 in data set [2] (318.15 K).

On to `CCO` [ethanol] + COC(=O)c1ccccc1, for which the surface tension liquid-gas in data set [3] (288.15 K) was determined as 23 ± 0.4 mN/m; in data set [3] (298.18 K), 22.3 ± 0.4 mN/m; in data set [3] (308.15 K), 21.5 ± 0.4 mN/m; in data set [3] (318.15 K) it was 20.6 ± 0.4 mN/m. Further, the refractive index turned out to be 1.36333 ± 0.00031 in data set [4] (288.15 K), 1.35941 ± 0.00031 in data set [4] (298.18 K), 1.35531 ± 0.00031 in data set [4] (308.15 K) and 1.35148 ± 0.00031 in data set [4] (318.15 K).

On to `CCO` [ethanol], for which the surface tension liquid-gas came to 23 ± 0.4 mN/m in data set [1] (288.15 K), 22.3 ± 0.4 mN/m in data set [1] (298.18 K), 21.5 ± 0.4 mN/m in data set [1] (308.15 K) and 20.6 ± 0.4 mN/m in data set [1] (318.15 K). Further, in data set [1], the mass density came out at 785 ± 0.24 kg/m3. Further, the refractive index in data set [2] (288.15 K) is 1.3633 ± 0.0003 and 1.36333 ± 0.00031; in data set [2] (298.18 K), 1.3594 ± 0.0003 and 1.35941 ± 0.00031; in data set [2] (308.15 K), 1.3553 ± 0.0003 and 1.35531 ± 0.00031; in data set [2] (318.15 K), 1.3515 ± 0.0003 and 1.35148 ± 0.00031.

`CCO` [ethanol] + CCOC(=O)c1ccccc1O: the surface tension liquid-gas worked out at 23 ± 0.4 mN/m in data set [3] (288.15 K), 22.3 ± 0.4 mN/m in data set [3] (298.18 K), 21.5 ± 0.4 mN/m in data set [3] (308.15 K) and 20.6 ± 0.4 mN/m in data set [3] (318.15 K). The refractive index in data set [4] (288.15 K) turned out to be 1.36333 ± 0.00031; in data set [4] (298.18 K), 1.35941 ± 0.00031; in data set [4] (308.15 K) it was 1.35531 ± 0.00031; in data set [4] (318.15 K), 1.35148 ± 0.00031.

Turning to `CCOC(=O)CC(C)C` [ethyl 3-methylbutanoate], the surface tension liquid-gas in data set [1] (288.15 K) is 24.4 ± 0.42 mN/m; in data set [1] (298.18 K), 23.5 ± 0.42 mN/m; in data set [1] (308.15 K), 22.45 ± 0.42 mN/m; in data set [1] (318.15 K), 21.6 ± 0.41 mN/m. In addition, the mass density in data set [1] is 859.78 ± 0.82 kg/m3. Besides, the refractive index in data set [2] (288.15 K) is reported as 1.3988 ± 0.00037; in data set [2] (298.18 K), 1.39401 ± 0.00037; in data set [2] (308.15 K), 1.38931 ± 0.00037; in data set [2] (318.15 K) it was 1.38458 ± 0.00037.

For the compound `CCOC(=O)c1ccccc1O` [ethyl 2-hydroxybenzoate], the surface tension liquid-gas in data set [1] (288.15 K) was 37.5 ± 0.41 mN/m; in data set [1] (298.18 K) it was 36.3 ± 0.41 mN/m; in data set [1] (308.15 K), 35.2 ± 0.41 mN/m; in data set [1] (318.15 K), 34.4 ± 0.41 mN/m. The mass density in data set [1] is listed as 1125 ± 0.4 kg/m3. Further, the refractive index in data set [2] (288.15 K) was found to be 1.52481 ± 0.00032; in data set [2] (298.18 K), 1.52022 ± 0.00032; in data set [2] (308.15 K) it was 1.51573 ± 0.00032; in data set [2] (318.15 K), 1.51116 ± 0.00032.

As to `CCO` [ethanol] + CC(=O)OCc1ccccc1, the surface tension liquid-gas in data set [3] (288.15 K) was 23 ± 0.4 mN/m; in data set [3] (298.18 K) it was 22.3 ± 0.4 mN/m; in data set [3] (308.15 K), 21.5 ± 0.4 mN/m; in data set [3] (318.15 K), 20.6 ± 0.4 mN/m. In addition, the refractive index in data set [4] (288.15 K) is recorded as 1.36333 ± 0.00031; in data set [4] (298.18 K), 1.35941 ± 0.00031; in data set [4] (308.15 K), 1.35531 ± 0.00031; in data set [4] (318.15 K) it was 1.35148 ± 0.00031.

On to `CCO` [ethanol] + CCOC(=O)CC(C)=O, for which the surface tension liquid-gas in data set [3] (288.15 K) was determined as 23 ± 0.4 mN/m; in data set [3] (298.18 K), 22.3 ± 0.4 mN/m; in data set [3] (308.15 K), 21.5 ± 0.4 mN/m; in data set [3] (318.15 K), 20.6 ± 0.4 mN/m. Also, the refractive index in data set [4] (288.15 K) amounted to 1.3633 ± 0.0003; in data set [4] (298.18 K), 1.3594 ± 0.0003; in data set [4] (308.15 K) it was 1.3553 ± 0.0003; in data set [4] (318.15 K), 1.3515 ± 0.0003.
